Source: BigSolDB 2.1

CO[C@@]1(NC(=O)CSCC#N)C(=O)N2C(C(=O)O)=C(CSc3nnnn3C)CS[C@@H]21
solubility (mole fraction)
Conditions	278.15 K	283.15 K	288.15 K	293.15 K	298.15 K	303.15 K
in ethanol	0.000215	0.000282	0.000369	0.000467	0.000596	0.000757
in isopropanol	4.6e-05	6.16e-05	8.19e-05	0.000107	0.000138	0.000174
in methanol	0.00154	0.00202	0.00264	0.00337	0.00429	0.00545
in water	1.57e-05	2.05e-05	2.65e-05	3.46e-05	4.39e-05	5.52e-05
